According to patent US20220056018A1, “SREBP INHIBITORS COMPRISING A THIOPHENE CENTRAL RING” (Capulus Therapeutics, LLC, priority 2019, published 2022):
pIC50: −log10 of the molar value.

What was measured:
Experiment in all cases: Cancer cell growth inhibition
Assay type in all cases: cell-based
[1] = test system: HEPG2; conditions: Homo sapiens; HEPG2 (liver), 72 hr treatment
Procedure: (§1) The ability of select compounds to inhibit cell growth in various cancer cell lines are evaluated. […] The cell lines shown in Table 2 have reduced growth by at least 50% at 10 uM or lower over 72 hr treatment in growth media. The cell lines shown in Table 3 have reduced growth by at least 50% with an IC50 greater than 10 uM.
(§2) Six 10-fold compound dilutions are prepared in DMSO (e.g. 10 mM, 1 mM, 100 uM, 10 uM, 1 uM, and 0.1 uM). Single data points are acquired for each concentration. The final concentration of DMSO is 0.1%. The duration of the treatment is 72 hr. Growth inhibition is measured using Sulforhodamine B in a protein staining assay. Activity of the agents is determined by evaluation the following parameters: IC50, GI50, IC10, TGI, LC50, IC90, and GI90 (where these values can be calculated).

[2] = test system: A375; conditions: Homo sapiens, A-375; A375 (skin), 72 hr treatment
Procedure: as §1, §2

[3] = test system: HEK293; conditions: Homo sapiens; HEK293 (kidney), 72 hr treatment
Procedure: as §1, §2

[4] = test system: SF295; conditions: Homo sapiens, SF-295; SF295 (brain), 72 hr treatment
Procedure: as §1, §2

[5] = test system: LOVO; conditions: Homo sapiens; LOVO (colon), 72 hr treatment
Procedure: as §1, §2

[6] = test system: MINO; conditions: Homo sapiens; MINO (hematological), 72 hr treatment
Procedure: as §1, §2

[7] = test system: GRANTA-519; conditions: Homo sapiens; GRANTA-519 (hematological), 72 hr treatment
Procedure: as §1, §2

[8] = test system: TE671; conditions: Homo sapiens, TE-671; TE671 (muscle), 72 hr treatment
Procedure: as §1, §2

[9] = test system: UO31; conditions: Homo sapiens, UO-31; UO31 (kidney), 72 hr treatment
Procedure: as §1, §2

[10] = test system: EJ28; conditions: Homo sapiens, EJ-28; EJ28 (bladder), 72 hr treatment
Procedure: as §1, §2

[11] = test system: A204; conditions: Homo sapiens; A204 (muscle), 72 hr treatment
Procedure: as §1, §2

[12] = test system: JEG3; conditions: Homo sapiens, JEG-3; JEG3 (placenta), 72 hr treatment
Procedure: as §1, §2

[13] = test system: L-363; conditions: Homo sapiens; L-363 (hematological), 72 hr treatment
Procedure: as §1, §2

[14] = test system: A2780; conditions: Homo sapiens; A2780 (ovary), 72 hr treatment
Procedure: as §1, §2

[15] = test system: CALU6; conditions: Homo sapiens, Calu-6; CALU6 (lung), 72 hr treatment
Procedure: as §1, §2

[16] = test system: NCIH460; conditions: Homo sapiens, NCI-H460; NCIH460 (lung), 72 hr treatment
Procedure: as §1, §2

[17] = test system: SKNSH; conditions: Homo sapiens, SK-N-SH; SKNSH (brain), 72 hr treatment
Procedure: as §1, §2

[18] = test system: COLO205; conditions: Homo sapiens, COLO 205; COLO205 (colon), 72 hr treatment
Procedure: as §1, §2

[19] = test system: RD; conditions: Homo sapiens; RD (muscle), 72 hr treatment
Procedure: as §1, §2

[20] = test system: BXPC3; conditions: Homo sapiens, BXPC-3; BXPC3 (pancreas), 72 hr treatment
Procedure: as §1, §2

[21] = test system: CACO2; conditions: Homo sapiens, Caco-2; CACO2 (colon), 72 hr treatment
Procedure: as §1, §2

[22] = test system: A549; conditions: Homo sapiens; A549 (lung), 72 hr treatment
Procedure: as §1, §2

[23] = test system: PANC1; conditions: Homo sapiens, PANC-1; PANC1 (pancreas), 72 hr treatment
Procedure: as §1, §2

[24] = test system: BT20; conditions: Homo sapiens, BT-20; BT20 (breast), 72 hr treatment
Procedure: as §1, §2

[25] = test system: A431; conditions: Homo sapiens, A-431; A431 (skin), 72 hr treatment
Procedure: as §1, §2

[26] = test system: 22RV1; conditions: Homo sapiens; 22RV1 (prostate), 72 hr treatment
Procedure: as §1, §2

[27] = test system: WSU-NHL; conditions: Homo sapiens; WSU-NHL (hematological), 72 hr treatment
Procedure: as §1, §2

[28] = test system: HT1080; conditions: Homo sapiens, HT-1080; HT1080 (connective tissue), 72 hr treatment
Procedure: as §1, §2

[29] = test system: THP-1; conditions: Homo sapiens; THP-1 (hematological), 72 hr treatment
Procedure: as §1, §2

[30] = test system: MHHES1; conditions: Homo sapiens, MHH-ES-1; MHHES1 (bone), 72 hr treatment
Procedure: as §1, §2

[31] = test system: MDAMB436; conditions: Homo sapiens, MDA-MB-436; MDAMB436 (breast), 72 hr treatment
Procedure: as §1, §2

[32] = test system: U87MG; conditions: Homo sapiens, U-87 MG; U87MG (brain), 72 hr treatment
Procedure: as §1, §2

CC(C)(CO)c1cc(-c2csc(-c3ccc(NS(C)(=O)=O)cc3Cl)c2)ccn1 [Compound I-8909, N-(3-chloro-4-(4-(2-(1-hydroxy-2-methylpropan-2-yl)pyridin-4-yl)thiophen-2-yl)phenyl)methanesulfonamide]
pIC50 [1]: > 5.00 | pIC50 [2]: < 5.00 | pIC50 [3]: > 5.00 | pIC50 [4]: > 5.00 | pIC50 [5]: > 5.00 | pIC50 [6]: > 5.00 | pIC50 [7]: < 5.00 | pIC50 [8]: > 5.00 | pIC50 [9]: < 5.00 | pIC50 [10]: < 5.00 | pIC50 [11]: > 5.00 | pIC50 [12]: > 5.00 | pIC50 [13]: > 5.00 | pIC50 [14]: > 5.00 | pIC50 [15]: > 5.00 | pIC50 [16]: > 5.00 | pIC50 [17]: > 5.00 | pIC50 [18]: > 5.00 | pIC50 [19]: < 5.00 | pIC50 [20]: < 5.00 | pIC50 [21]: > 5.00 | pIC50 [22]: > 5.00 | pIC50 [23]: > 5.00 | pIC50 [24]: < 5.00 | pIC50 [25]: < 5.00 | pIC50 [26]: > 5.00 | pIC50 [27]: > 5.00 | pIC50 [28]: > 5.00 | pIC50 [29]: > 5.00 | pIC50 [30]: > 5.00 | pIC50 [31]: < 5.00 | pIC50 [32]: < 5.00

CC(C)(O)Cc1cc(-c2csc(-c3ccc(NS(C)(=O)=O)cc3Cl)c2)ccn1 [Compound I-9004, N-(3-chloro-4-(4-(2-(2-hydroxy-2-methylpropyl)pyridin-4-yl)thiophen-2-yl)phenyl)methanesulfonamide]
pIC50 [1]: > 5.00 | pIC50 [2]: < 5.00 | pIC50 [3]: > 5.00 | pIC50 [4]: > 5.00 | pIC50 [5]: > 5.00 | pIC50 [6]: > 5.00 | pIC50 [7]: < 5.00 | pIC50 [8]: > 5.00 | pIC50 [9]: < 5.00 | pIC50 [10]: < 5.00 | pIC50 [11]: < 5.00 | pIC50 [12]: > 5.00 | pIC50 [13]: > 5.00 | pIC50 [14]: > 5.00 | pIC50 [15]: > 5.00 | pIC50 [16]: > 5.00 | pIC50 [17]: > 5.00 | pIC50 [18]: > 5.00 | pIC50 [19]: < 5.00 | pIC50 [20]: < 5.00 | pIC50 [21]: > 5.00 | pIC50 [22]: > 5.00 | pIC50 [23]: > 5.00 | pIC50 [24]: < 5.00 | pIC50 [25]: < 5.00 | pIC50 [26]: > 5.00 | pIC50 [27]: > 5.00 | pIC50 [28]: > 5.00 | pIC50 [29]: > 5.00 | pIC50 [30]: > 5.00 | pIC50 [31]: > 5.00 | pIC50 [32]: < 5.00

CS(=O)(=O)Nc1ccc(-c2cc(-c3ccnc4c3OCCO4)cs2)c(Cl)c1 [Compound I-9017, N-(3-chloro-4-(4-(2,3-dihydro-[1,4]dioxino[2,3-b]pyridin-8-yl)thiophen-2-yl)phenyl)methanesulfonamide]
pIC50 [1]: > 5.00 | pIC50 [2]: < 5.00 | pIC50 [3]: > 5.00 | pIC50 [4]: > 5.00 | pIC50 [5]: > 5.00 | pIC50 [6]: > 5.00 | pIC50 [7]: > 5.00 | pIC50 [8]: > 5.00 | pIC50 [9]: > 5.00 | pIC50 [10]: < 5.00 | pIC50 [11]: > 5.00 | pIC50 [12]: > 5.00 | pIC50 [13]: > 5.00 | pIC50 [14]: > 5.00 | pIC50 [15]: > 5.00 | pIC50 [16]: > 5.00 | pIC50 [17]: > 5.00 | pIC50 [18]: > 5.00 | pIC50 [19]: < 5.00 | pIC50 [20]: > 5.00 | pIC50 [21]: > 5.00 | pIC50 [22]: > 5.00 | pIC50 [23]: > 5.00 | pIC50 [24]: > 5.00 | pIC50 [25]: < 5.00 | pIC50 [26]: > 5.00 | pIC50 [27]: > 5.00 | pIC50 [28]: > 5.00 | pIC50 [29]: > 5.00 | pIC50 [30]: > 5.00 | pIC50 [31]: > 5.00 | pIC50 [32]: > 5.00
